Legend:
[1] = system: prolyl hydroxylase (PHD); conditions: as described in Patent Document 1 (WO 2011/007856); cited from earlier work
[2] = system: SD rat model of renal ischemia-reperfusion injury; assay: Suppressive effect on tubulointerstitial fibrosis in a rat model of renal ischemia-reperfusion injury (sirius red staining); assay type: in vivo; conditions: male SD rats, oral once daily for 6 days starting 3 days before ischemia-reperfusion injury, 0.2 or 2 mg/mL at 5 mL/kg; kidney 4 weeks after injury; FIG. 3
Procedure: Experiment 2. […] Male SD rat at 6 weeks of age (CHARLES RIVER LABORATORIES JAPAN, INC.) was used as an experiment animal. 0.5% (w/v) Methylcellulose (MC) was orally administered to Vehicle Group and Sham Group, and 0.2 mg/mL or 2 mg/mL Compound A suspended in 0.5% (w/v) methylcellulose (MC) was orally administered to Compound A Group at a dose of 5 mL/kg once daily for 6 days from 3 days before the ischemia-reperfusion injury. On one day before the ischemia-reperfusion injury, the right kidney was removed under isoflurane anesthesia. The ischemia-reperfusion injury was induced by clamping the left renal vein and artery for 45 minutes and then following reperfusion under isoflurane anesthesia, whereas such a surgery treatment was not performed for the Sham Group. 4 Weeks after the ischemia-reperfusion injury, the rats were exsanguinated under isoflurane anesthesia, kidney was collected and fixed in 10% neutral buffered formalin, and then paraffin-embedded section was prepared. Staining and image analysis were performed by a similar method as described above.

[3] = system: hypoxia-inducible factor (HIF); conditions: as described in Patent Document 1 (WO 2011/007856); cited from earlier work
[4] = system: SHR/NDmcr-cp rat model of diabetic nephropathy; assay: Suppressive effect on tubulointerstitial fibrosis in a rat model of diabetic nephropathy (sirius red staining); assay type: in vivo; conditions: male SHR/NDmcr-cp rats, Compound A 0.01% diet from 12 to 40 weeks of age (28 weeks), kidney sections; FIG. 1
Procedure: Experiment 1. […] Male […] (Japan SLC, Inc.) was used as an experiment animal, and male WKY/Izm rat was used as a normal control (WKY group). The above-mentioned two types of rats were purchased at 6 weeks of age. After confirming that […] have hyperglycemia, hypertension, and hyperlipidemia; Compound A (0.01% diet) and vehicle (powdered diet) were administered to Compound A Group and Vehicle Group respectively from 12 weeks of age to 40 weeks of age. At 40 weeks of age, the rats were exsanguinated under isoflurane anesthesia, kidney was collected and fixed in 10% neutral buffered formalin, and then paraffin-embedded section was prepared. After deparaffinization, the section was stained with an iron hematoxylin solution for 8 minutes and then with a sirius red solution for 1 hour. The iron hematoxylin solution was prepared at the time of use by mixing equal volume of Solution 1 (dissolving 1 g hematoxylin in 100 mL ethanol) and Solution 2 (dissolving 2 g ferric chloride (FeCl3·6H2O) and 1 mL of 25% hydrochloric acid in 95 mL distilled water). […] An image of the sirius red-stained section was captured with HS All-in-One Fluorescence Microscope (BZ-9000, KEYENCE CORPORATION), and the ratio (%) of sirius red-stained area relative to the whole kidney area was measured by a built-in image analysis function.

Q: Which “prolyl hydroxylase (PHD) inhibitory action” value [1] does the source give for O=C(O)CNC(=O)c1c(O)cc(CCc2ccccc2)n2ncnc12 [Compound A, 2-({[7-hydroxy-5-(2-phenylethyl)-[1,2,4]triazolo[1,5-a]pyridin-8-yl]carbonyl}amino)acetic acid] here?
A: has a prolyl hydroxylase (PHD) inhibitory action

Q: What about the “tubulointerstitial fibrosis, sirius red-stained area ratio” value [2] of the same compound?
A: suppressive effect on tubulointerstitial fibrosis

Q: What about the “stabilization of hypoxia-inducible factor (HIF)” value [3] of the same compound?
A: stabilizes the hypoxia-inducible factor (HIF)

Q: And the “tubulointerstitial fibrosis, sirius red-stained area ratio” value [4]?
A: suppressive effect on tubulointerstitial fibrosis
